Test results from patent US9073858B2, “Methods of targeted drug development” (priority 2010, dated 2015).
Where two headings read alike, the source gives them in different places.

What was measured:
MDBK line = test: MTT Cell Proliferation Assay, MDBK line; assay type: cell-based, bovine
Description: (§1) The following example describes the MTT Cell Proliferation Assay.
(§2) The MTT Cell Proliferation Assay is a colorimetric assay system that measures the reduction of the tetrazolium salt MTT (3-(4,5-dimethylthiazol-2-yl)-2,5-diphenyltetrazolium bromide) into insoluble formazan crystals, produced by the mitochondria of viable cells. […] The color can then be quantified by spectrophotometric means. Among the applications for the method are drug sensitivity, cytotoxicity, response to growth factors, and cell activation. The reduction of tetrazolium salts is now recognized as a safe, accurate alternative to radiometric testing.
(§3) Two replicates on each cell plate and 2 duplicate plates gave 4 individual replicates of each concentration, in each cell line. Concentrations were diluted in 100% DMSO from 25 mM stocks.
(§4) Twelve 96 well plates of each cell line were plated. Plating was done by dislodging cells as in passage protocol, counting on a hemocytometer, re-suspending in standard growth media, and plating using a multichannel pippetor.
(§5) 16 μl of 25 mM stock+34 μl DMSO=8 mM starting concentrations, and serial diluted as with test compounds in same plate. […] Two replicates of each concentrations was run on each cell plate. All compound addition and cell treatments were done using aseptic technique under a laminar flow aseptic hood.
(§6) Control: 0.5% DMSO in treatment media was used as the control.
(§7) MTT dye (Thiazolyl Blue Tetrazolium Bromide, Sigma cat # M5655) stock was prepared in bulk and stored at 4° C. for use: 5 mgs/ml sterile PDS, shielded from light. 4 ul of this stock per 100 uls treatment media per well was used.
(§8) Plates were incubated overnight prior to treatment, with treatment day=Day 0. Compound treatments were prepared prior to washing cells to minimize time cells were dry at room temperature after final aspiration. Compounds were diluted in 100% DMSO in 96 well polypropylene plates:40 μl 25 mM stock+10 μl DMSO=20 mM; 20 μl of 20 mM+30 μl DMSO=8 mM; 20 μl of 8 mM+30 μl DMSO=3.2 mM; 20 μl of 3.2 mM+30 μl DMSO=1.3 mM; 20 μl of 1.3 mM+30 μl DMSO=0.51 mM.
(§9) 5.0 μl/ml were added to treatment media, in sterile, 2.2 ml deep well plates=0.5% dmso final. Ten μl of each dmso concentration was added to 2.0 ml of treatment media and then mixed using a 1200 μl multichannel pipettor. Cell plates were treated from the deep well plates. Treatment media was standard growth media containing 0.5% FBS and standard additions. This reduced FBS concentration allowed for a slower growth rate in cells.
(§10) Media was aspirated from cell plates, and washed with 200 μl/well sterile PBS. Aspirated PBS wash, and cell plates were treated with 200 μl of compound/treatment media per well, and incubated at 37° C., 5% CO2 for 3 days.
(§11) Prior to harvesting, visual observations were made under an inverted microscope. Plates were harvested by: aspirating the growth media; adding back MTT dye/100 μl treatment media; and incubating plates at 37° C. for 1 hour. MTT dye was aspirated. 100 μl/well dmso was added, and then shaken on a Bellco plate shaker for 5 minutes, at 4.5 setting.
(§12) Plates were read in a Tecan Sunrize UV plate reader, at 560 nm. Settings: Read mode, Outside Normal 2 sec; Shake settle time 3 sec. Data is reported as % inhibition, calculated for individual plates using control values from that plate.

[1] = test system: epithelial carcinoma A431 cell line; test: MTT Cell Proliferation Assay, A431 cell line; assay type: cell-based; settings: for MTT-72 h A431/MDBK (ratio) / MTT (10 Point follow-up) ratio: value in brackets; for MTT-72 h A431/MDBK (ratio): numerically MDBK value over A431 value; for MTT (10 Point follow-up) ratio: numerically MDBK over A431
Description: as §1, §2, §3, §4, §5, §6, §7, §8, §9, §10, §11, §12

EGFR = target: T1, EGFR (Homo sapiens, UniProt P00533); test: EGFR in-cell Western (ICW) screening protocol; assay type: cell-based; parameters: unit not given here; settings: for ICW Screen: initial screen
T1 construct: endogenous in cells; host or cells: A431 cells (ATCC CRL-1555)
Description: The following example describes general EGFR in-cell Western (ICW) screening protocol.
Two cell plates were prepared for each compound plate.
Serum Starvation: The cells were serum starved prior to compound addition. […] The cell plates were incubated at 37° C./5% CO2 for 2 hours.
Prepared compound plates were stored at RT prior to use and at 4° C. long term.
Compound Dilution Plate Preparation: 250 μl of DMEM supplemented with 1 mg/ml BSA (Sigma A3059-10G) was added to the appropriate wells of a 96 well plate to prepare the compound dilution plates. Using a multichannel pipettor, 1.25 μl of compound from the compound plate was transferred into the compound dilution plate.
Compound Addition: The starve media was removed from the cell plates by aspiration. Using a multichannel pipettor, the compound dilution plates were mixed by pipetting up and down three times. 50 μl of mixed, diluted compound was added to each of two rows/columns on each of two cell plates. The cell plates with compound were incubated at 37° C./5% CO2 for 4 hours.
50 μl of 20 or 0 ng/ml EGF was added to the appropriate wells without the removal of compound. The compound and EGF were mixed by pipetting up and down three times.
The plates were incubated at RT for 20 min without shaking. The Fixation Solution was removed by aspiration and the plates washed four times with 200 μl each of Triton Wash Solution (1×PBS, Sigma P3813-10PK, and 0.1% Triton X-100, T8787-50ML) for 5 min with gentle shaking.
The block was removed by aspiration and 50 μl of diluted primary Ab mix was added. The plates were incubated at 4° C. overnight with gentle shaking. The plates were washed five times with 200 μl of PBST (1×PBS, Sigma P3813-10PK, and 0.1% Tween-20, Sigma P9416-50ML) for 5 min each with shaking. 50 μl of diluted secondary Ab mix was added and the plates incubated at RT for 1 h with shaking. The plates were washed 5× with 200 μl of PBST for 5 min each with shaking. One final wash with 200 μl of PBS (Sigma P3813-10PK) for 5 min with shaking was performed prior to scanning.
In some screening assays, the dilution of the secondary Ab conjugates was 1/800 rather than 1/1200.
Plate Scanning: The plates were scanned on an Odyssey Infrared Imaging System from LI-COR Biosciences. The focus offset was set at 3.5 mm and the scanning intensity set at 3 for the 700 channel and 7 for the 800 channel.
Data Analysis: The % of Maximum and % Inhibition values were calculated as follows. 700 Channel=signal for total EGFR (used to control for variation in cell number). 800 Channel=signal for phosphorylated EGFR. 800−EGF=basal level EGFR phosporylation+non-specific signal (no compound). 800+EGF=800−EGF+EGF dependent EGFR receptor phosphorylation (no compound). 700/800com=700 or 800 channel signals with compound. % Maximum={[(800com/700com)−(800−EGF/700−EGF)]/[(800+EGF/700+EGF)−(800−EGF/700−EGF)]}×100%. % Inhibition=100%−(% Maximum).

[2] = Bos taurus, MDBK, 72 h, second value of A431/MDBK pair, read-out: MTT-72 h MDBK
[3] = Homo sapiens, A-431, 72 h, 72 h, first value of A431/MDBK pair, read-out: MTT-72 h A431
[4] = Bos taurus, MDBK, 10 point follow-up, second value of pair, read-out: MTT (10 Point follow-up) MDBK
[5] = Homo sapiens, A-431, 10 point follow-up, first value of pair, read-out: MTT (10 Point follow-up) A431

T1 sequence (P00533 25-1210): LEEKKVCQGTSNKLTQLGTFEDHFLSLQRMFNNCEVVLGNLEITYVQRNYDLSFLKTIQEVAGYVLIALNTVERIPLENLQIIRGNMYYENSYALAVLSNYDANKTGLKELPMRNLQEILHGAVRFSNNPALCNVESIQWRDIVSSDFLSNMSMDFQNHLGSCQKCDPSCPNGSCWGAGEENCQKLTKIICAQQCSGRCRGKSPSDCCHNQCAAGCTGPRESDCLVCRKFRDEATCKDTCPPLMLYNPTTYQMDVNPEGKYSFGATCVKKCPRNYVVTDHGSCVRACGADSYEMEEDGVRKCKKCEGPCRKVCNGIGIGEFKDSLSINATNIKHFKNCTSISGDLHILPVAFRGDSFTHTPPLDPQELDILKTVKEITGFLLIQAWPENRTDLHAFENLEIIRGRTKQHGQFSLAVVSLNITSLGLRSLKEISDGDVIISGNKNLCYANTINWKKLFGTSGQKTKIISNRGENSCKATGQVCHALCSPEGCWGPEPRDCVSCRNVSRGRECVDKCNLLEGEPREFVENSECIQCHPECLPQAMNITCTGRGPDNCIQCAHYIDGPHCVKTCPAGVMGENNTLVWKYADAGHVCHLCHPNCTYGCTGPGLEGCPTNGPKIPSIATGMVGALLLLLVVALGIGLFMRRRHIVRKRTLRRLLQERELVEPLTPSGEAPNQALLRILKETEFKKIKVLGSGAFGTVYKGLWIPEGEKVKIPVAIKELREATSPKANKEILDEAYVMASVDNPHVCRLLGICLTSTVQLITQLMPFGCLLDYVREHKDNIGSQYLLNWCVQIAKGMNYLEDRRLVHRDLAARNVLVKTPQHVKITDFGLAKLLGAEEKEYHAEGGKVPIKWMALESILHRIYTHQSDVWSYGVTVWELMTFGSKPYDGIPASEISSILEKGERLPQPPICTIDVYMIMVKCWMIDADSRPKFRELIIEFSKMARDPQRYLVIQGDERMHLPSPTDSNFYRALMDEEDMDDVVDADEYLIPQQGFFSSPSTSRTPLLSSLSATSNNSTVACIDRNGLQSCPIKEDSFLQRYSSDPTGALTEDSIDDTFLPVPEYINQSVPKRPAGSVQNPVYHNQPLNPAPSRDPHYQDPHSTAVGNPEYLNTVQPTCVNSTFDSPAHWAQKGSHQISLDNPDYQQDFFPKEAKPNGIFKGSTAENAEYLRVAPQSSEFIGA

IC50 [1, 3]	ICW Screen (EGFR)	IC50 [1, 5]	ICW Re-Test (EGFR)	IC50 ([1]; 10 point follow-up, first value of pair, read-out: MTT (10 Point follow-up) A431)	IC50 ([1]; 72 h, first value of A431/MDBK pair, read-out: MTT-72 h A431)	SMILES	IC50 (MDBK line; [2])	MTT-72 h A431/MDBK (ratio) ([1]; 72 h)	IC50 (MDBK line; [4])	MTT (10 Point follow-up) ratio ([1]; 10 point follow-up)	IC50 (MDBK line; 10 point follow-up, second value of pair, read-out: MTT (10 Point follow-up) MDBK)	IC50 (MDBK line; 72 h, second value of A431/MDBK pair, read-out: MTT-72 h MDBK)
9.39 µM	34.62					COc1ccc(C(Nc2cc(C)ccn2)c2ccc3cccnc3c2O)c(OC)c1OC (stereo not shown) [compound 10031]	6.09 µM	0.65				
1.85 µM	49.36	1.81 µM	5.98			Oc1c(C(Nc2ccccn2)c2ccccc2F)ccc2cccnc12 (stereo not shown) [compound 10033]	4.62 µM	2.49	4.43 µM	2.44		
12 µM	27.1					Cc1ccc2ccc(C(Nc3ccccn3)c3ccc(C)c(C)c3)c(O)c2n1 (stereo not shown) [compound 10034]	7.16 µM	0.60				
43 µM	32.12					Cc1cccc(NC(c2ccc(O)cc2)c2ccc3ccc(C)nc3c2O)n1 (stereo not shown) [compound 10037]	18.2 µM	0.42				
5.75 µM	28.31					Cc1ccnc(NC(c2ccc3c(c2)OCO3)c2ccc3cccnc3c2O)c1 (stereo not shown) [compound 10038]	5.42 µM	0.94				
2.95 µM	45.08	1.59 µM	3.45			CCc1ccc(C(Nc2ccccn2)c2ccc3cccnc3c2O)cc1 (stereo not shown) [compound 10041]	2.94 µM	1.00	2.34 µM	1.47		
1.49 µM	47.99	9.62 µM	−8.06			O=[N+]([O-])c1ccccc1C(Nc1ccccn1)c1ccc2cccnc2c1O (stereo not shown) [compound 10042]	1.49 µM	1.00	6.63 µM	0.69		
	34.63	5.46 µM				Cc1cccc(NC(c2cccc(Cl)c2)c2ccc3cccnc3c2O)n1 (stereo not shown) [compound 10043]			5.29 µM	0.97		
13.5 µM	27.22					Cc1ccc2ccc(C(Nc3ccccn3)c3ccc(F)cc3)c(O)c2n1 (stereo not shown) [compound 10045]	9.85 µM	0.73				
	12.78			1.66 µM		Oc1c(C(Nc2ccccn2)c2ccc(Cl)cc2Cl)ccc2cccnc12 (stereo not shown) [compound 10046]				1.87	3.1 µM	
	44.94	5.46 µM	15.3			Oc1c(C(Nc2ccccn2)c2ccc(Br)cc2)ccc2cccnc12 (stereo not shown) [compound 10048]			5.23 µM	0.96		
12.2 µM	35.57					CCOc1ccccc1C(Nc1ccccn1)c1ccc2ccc(C)nc2c1O (stereo not shown) [compound 10049]	11.5 µM	0.94				
5.39 µM	32.11					C=CCOc1cccc(C(Nc2ccccn2)c2ccc3cccnc3c2O)c1 (stereo not shown) [compound 10050]	5.35 µM	0.97				
0.79 µM	36.47	0.545 µM				Oc1c(C(Nc2ccccn2)c2cccc(Cl)c2Cl)ccc2cccnc12 (stereo not shown) [compound 10051]	1.42 µM	1.80	0.974 µM	1.79		
2.35 µM	43.1	13.8 µM	20.95			C=CCOc1ccc(C(Nc2ccccn2)c2ccc3cccnc3c2O)cc1 (stereo not shown) [compound 10052]			9.25 µM	0.67		
	32.85	3.98 µM				Cc1ccnc(NC(c2cccc(OCc3ccccc3)c2)c2ccc3cccnc3c2O)c1 (stereo not shown) [compound 10053]			0.44 µM	0.11		
5.47 µM	35.84					Cc1ccc(C(Nc2cccc(C)n2)c2ccc3cccnc3c2O)cc1 (stereo not shown) [compound 10054]	5.46 µM	1.00				
	28.09				12.1 µM	Cc1cccc(NC(c2ccc3c(c2)OCO3)c2ccc3cccnc3c2O)n1 (stereo not shown) [compound 10055]		0.68				8.17 µM
5.38 µM	34.16		44.46			Cc1cccc(NC(c2ccc(F)cc2)c2ccc3cccnc3c2O)n1 (stereo not shown) [compound 10056]	5.18 µM	0.96				
5.14 µM	28.52	1.08 µM				Cc1cccc(NC(c2ccc(Cl)cc2)c2ccc3cccnc3c2O)n1 (stereo not shown) [compound 10058]	5.83 µM	1.13	1.68 µM	1.56		
	9.336	1.56 µM				Oc1ccc(Br)c(C(Nc2ccccn2)c2ccc3cccnc3c2O)c1 (stereo not shown) [compound 10064]			2.01 µM	1.29		
